Article PMC10803289, “Transport and inhibition mechanism of the human SGLT2–MAP17 glucose transporter” (Nature Structural & Molecular Biology, 2023)
Several values for one entry are separate records, joined by “and”; a condition that tells them apart may be missing. Equal values may be shown once.

Key:
[1] = tested on: SGLT1 and SGLT2; conditions: in words; cited from earlier work
[2] = tested on: nontransfected Expi293 cells (Mock); test: Nonspecific binding to crude membrane of nontransfected cells (Mock); set-up: species or system human; conditions: 30 nM canagliflozin; Mock membrane
Protocol: To examine the inhibition of binding to the crude membrane, mammalian Expi293 cells were co-transfected with the hMAP17 and hSGLT2 plasmids, as described. The cells were collected and disrupted by sonication in a hypotonic buffer (50 mM HEPES–NaOH (pH 7.5), 10 mM KCl and protease inhibitor cocktail) or Na^+-free hypotonic buffer (50 mM Tris–HCl (pH 7.5), 10 mM KCl and protease inhibitor cocktail). The cell debris were removed by centrifugation (2,000g, 5 min, 4 °C). The membrane fraction was collected by ultracentrifugation (112,000g, 30 min, 4 °C) and stored at −80 °C before use. The crude membrane (250 μg per sample) was incubated with SGLT2 inhibitor in an assay buffer (100 mM NaCl and 10 mM HEPES/Tris, pH 7.4) or Na^+-free assay buffer (100 mM choline chloride and 10 mM HEPES/Tris, pH 7.4) at room temperature for 2 h. Reactions were terminated by filtration through a GF/C filter plate (Corning) presoaked in assay buffer containing 0.1% bovine serum albumin. The sample in the filter plate was washed three times with the assay buffer and eluted with acetonitrile: water (80:20, v/v). The extract solution from the filter plate was diluted with water containing candesartan as an internal standard, and the SGLT2 inhibitor concentration was quantified via LC–MS/MS.
(§1) Nonspecific binding was measured using the crude membrane of nontransfected Expi293 cells. Specific binding was calculated by subtracting nonspecific binding from the binding of hSGLT2-expressing cells. Specific binding was normalized to hSGLT2 protein expression levels, measured via FSEC. The equilibrium dissociation constant (Kd) and maximum number of binding sites (Bmax) were calculated via nonlinear regression in GraphPad Prism 8.4.3. The specific binding of the hSGLT2 mutants was normalized to the Bmax of WT hSGLT2.
The concentrations of the extract solution from the filter plate and of the cell lysate were quantified using a tandem mass spectrometry QTRAP6500 System (SCIEX) coupled with an ACQUITY UPLC system (Waters) using the internal standard method. Mobile phases A and B used 10 mM of ammonium bicarbonate and acetonitrile, respectively.

[3] = molecular target: T1, hSGLT2 D201A (Homo sapiens, UniProt P31639, D201A); test: SGLT2 inhibitor-binding assay (AS-MS), crude membrane, D201A mutant; set-up: expressed in transfected cells; host or cells: Expi293 cells, crude membrane fraction; conditions: 30 nM canagliflozin; D201A; replicates
T1 sequence (P31639 1-672 D201A): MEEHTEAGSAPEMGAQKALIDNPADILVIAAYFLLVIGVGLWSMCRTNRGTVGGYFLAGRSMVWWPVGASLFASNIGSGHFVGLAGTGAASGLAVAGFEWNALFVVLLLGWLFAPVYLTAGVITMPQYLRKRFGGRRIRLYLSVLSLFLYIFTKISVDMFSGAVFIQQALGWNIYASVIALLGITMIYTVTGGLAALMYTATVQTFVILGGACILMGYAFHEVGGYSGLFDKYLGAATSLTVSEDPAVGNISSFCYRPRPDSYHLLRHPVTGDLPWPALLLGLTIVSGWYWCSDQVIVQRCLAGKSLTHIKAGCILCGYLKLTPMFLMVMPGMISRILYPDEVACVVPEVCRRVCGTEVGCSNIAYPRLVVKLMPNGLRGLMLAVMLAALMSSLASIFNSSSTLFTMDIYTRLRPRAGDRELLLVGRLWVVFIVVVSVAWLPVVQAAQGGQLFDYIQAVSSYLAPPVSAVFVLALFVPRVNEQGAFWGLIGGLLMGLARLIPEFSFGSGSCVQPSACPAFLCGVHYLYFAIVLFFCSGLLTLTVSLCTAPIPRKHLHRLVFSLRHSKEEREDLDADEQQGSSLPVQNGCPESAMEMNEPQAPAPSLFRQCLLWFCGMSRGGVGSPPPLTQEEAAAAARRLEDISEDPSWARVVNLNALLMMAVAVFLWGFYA
T1 sequence (Q13113 1-114 partner): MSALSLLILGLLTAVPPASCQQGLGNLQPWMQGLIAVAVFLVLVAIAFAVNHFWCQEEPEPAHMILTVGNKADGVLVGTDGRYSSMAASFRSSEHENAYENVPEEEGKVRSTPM
Source text: hSGLT2 complementary DNA and human MAP17 cDNA were synthesized and codon-optimized for expression in human cell lines. Both cDNAs were cloned into the pcDNA3.4 vector. The hSGLT2 sequence was fused with an N-terminal signal sequence from human trypsinogen 1, a His10 tag, and sfGFP, followed by a human rhinovirus 3C protease (HRV3C protease) recognition site. Point mutations were introduced into this construct using site-directed mutagenesis. These plasmids were utilized for all experimental procedures conducted in this study.
To examine the inhibition of binding to the crude membrane, mammalian Expi293 cells were co-transfected with the hMAP17 and hSGLT2 plasmids, as described. […] The extract solution from the filter plate was diluted with water containing candesartan as an internal standard, and the SGLT2 inhibitor concentration was quantified via LC–MS/MS.
as §1, with “The specific binding of the hSGLT2 mutants was normalized to the Bmax of WT hSGLT2.” left out

[4] = tested on: Mock cells; test: α-MG uptake in mock (empty vector) HEK293 cells; type: cell-based, human; conditions: Control (no inhibitor)
Protocol: HEK293 cells (ECACC 85120602) were maintained in Dulbecco’s modified Eagle medium (Gibco) supplemented with 10% fetal bovine serum (Thermo Scientific), 2 mM L-glutamine, 100 U ml^−1 benzylpenicillin and 100 µg ml^−1 streptomycin at 37 °C in a humidified atmosphere (5% CO2 in air). HEK293 cells were seeded at 1.0 × 10^5 cells per well in poly-L-lysine coated 24-well plates. The cells in each well were transiently transfected with 0.25 µg hMAP17 plasmid and 0.50 µg hSGLT2 plasmid using Lipofectamine 2000 (Life Technologies) and cultured for 48 h. […]
Cell lysates were deproteinized by adding acetonitrile containing candesartan as the internal standard. The α-MG concentration was quantified via liquid chromatography–tandem mass spectrometry (LC–MS/MS) using the internal standard method.
Cellular protein content was determined using a bicinchoninic acid protein assay kit (Thermo Fisher Scientific). The uptake of α-MG was expressed as the ratio of concentration in the cells (in pmol per mg protein) to concentration in the medium (in pmol μl^−1); this is known as the cell-to-medium ratio (in μl per mg protein).
In the inhibition study, the cell-to-medium ratio of cells transfected with the empty vector was used as the background. […] IC50 was calculated via nonlinear regression using GraphPad Prism 8.4.3. […]

Cc1ccc([C@@H]2O[C@H](CO)[C@@H](O)[C@H](O)[C@H]2O)cc1Cc1ccc(-c2ccc(F)cc2)s1 [Canagliflozin]
subtype specificity of inhibition (SGLT1 vs SGLT2) [1]: SGLT2-specific inhibition
Canagliflozin binding (% of hSGLT2) [2]: 2.562 % of hSGLT2 and 2.489 % of hSGLT2 and 1.993 % of hSGLT2
Canagliflozin binding (% of WT) [3]: 127.94 % of WT and 124.539 % of WT and 148.349 % of WT

CO[C@H]1O[C@H](CO)[C@@H](O)[C@H](O)[C@H]1O [α-MG, α-methyl-D-glucopyranoside]
α-MG uptake [4]: 1.2395 μL/mg-protein and 1.0638 μL/mg-protein and 1.0076 μL/mg-protein and 1.0525 μL/mg-protein
